# According to patent US20100130598A1, “METHODS FOR INDUCING PROGRAMMED CELL DEATH” (Novogen Research Pty Ltd., priority 2008, published 2010):
# Assays:
# Assay type in all cases: cell-based, human
# MIAPaCa-2 cells = assay: Apoptosis/necrosis by FACS (Annexin-V-FITC/PI), MIAPaCa-2
# Description: Cells. Human pancreatic cell lines HPAC, MIAPaCa-2 and PANC-1 were obtained from the ATCC. (Manassas, Va.). The cells were maintained in DMEM media with Gln and high glucose (Mediatech, Manassas, Va.) with 10% fetal bovine serum (FBS, HyClone, Logan, Utah) and pencillin/streptomycin.
# FACS Analysis. Apoptosis was measured by FACS analysis using Annexin-V-FITC and propidium iodide (PI) (Biovision, Mountain View, Calif.) as probes (Ahn et al., 2003). Mitochondrial membrane potential was measured by FACS analysis using JC-1 (Biovision) as a probe (Ahn et al., 2003). Cell cycle was analyzed on ethanol-fixed, RNaseA-treated cells staining with PI. In each spectrum, 10,000 gated events were recorded and analyzed with a FACSCalibur (BD Biosciences. San Jose, Calif.). All experiments were done in triplicate, error bars represent one standard deviation. Caspase inhibitor I (zVAD-fmk) was obtained from Calbiochem.
# EOC cells [1] = assay: Mitochondrial depolarization using JC-1 (flow cytometry); conditions: 10 pg/ml (as printed, FIG. 5 legend)
# Description: Assay of mitochondrial depolarization using JC-1. After treatment, cells were trypsinized and stained with JC-1 dye using the Mitocapture™ mitochondrial apoptosis detection kit (BioVision Research Products, Mountain View, Calif.) according to manufacturer's instruction. Data was acquired using BD LSR II System and analyzed using BD FACSDiva Software™.
# 8 phospho-proteins = assay: Analysis of phospho-proteins using xMAP technology (Beadlyte 8-plex); conditions: EOC cells, 10 μg/ml
# Description: Analysis of phoshpo-proteins using xMAP technology. After treatment, cells were lysed and lysates were used to measure the phosphorylation status of 8 proteins using the Beadlyte® 8-plex Multi-Pathway Signaling kit (Millipore, Billerica, Mass.) according to manufacturer's instructions. Data was acquired using the BioPlex System (BioRad, Hercules, Calif.).
# [2] = test system: phosphorylated mTOR (p-mTOR); assay: Western blot of EOC whole cell lysates for phospho-mTOR; conditions: EOC cells, 10 g/ml (as printed, FIG. 3 legend), 15 mins post-treatment
# Description: Protein preparation and cellular fractionation. After drug treatment, protein was extracted and measured as previously described (Alvero et al, 2006). For separation of the cytoplasmic and mitochondrial fractions, cell pellets were processed using the ApoAlert™ Cell Fractionation Kit (BD Biosciences, San Jose, Calif.) according to the manufacturer's instructions. For separation of the cytoplasmic and nuclear fractions, pellets were processed using NE-PER Nuclear and Cytoplasmic Extraction (Pierce Biotechnology, Inc., Rockford, Ill.).
# SDS-PAGE and Western blots. Cell lysates (20 μg protein) were denatured in sample buffer (2.5% SDS, 10% glycerol, 5% β-mercapto-ethanol, 0.15 M Tris (pH=6.8) and 0.01% bromophenol blue) and subjected to 12% SDS-PAGE as previously described (Kamsteeg et al, 2003). […]
# EOC cells [3] = assay: Cell viability assay (CellTiter 96 AQueous One)
# Description: Cell lines and culture conditions. Established human EOC cell lines, A2780 and A2780/CP70 (gifts from Dr. T C Hamilton) (Behrens et al, 1997) were propagated in RPMI plus 10% fetal bovine serum (Gemini Bio-Products, Woodland, Calif.). Primary EOC cell lines were isolated from malignant ovarian ascites or explanted from ovarian tumors and cultured as previously described (Alvero et al, 2006). Purity of the EOC cells was 100% as determined by immuno-staining for cytokeratin 7 antigen. All cell lines were grown at 37° C. in a 5% CO2 atmosphere.
# Cell viability assay. Cell viability was determined as previously reported (Alvero et al., 2006). Briefly, cells (5×10^3) were plated in triplicate wells in a […] volume per well of a 96-well microtiter plate (BD Biosciences/Pharmingen, San Diego, Calif.). The cells were grown to 70% confluence and then incubated in reduced-serum phenol-depleted Opti-MEM medium (Invitrogen-GIBCO, Carlsbad, Calif.) for 4 h prior to treatment. Compound 1 (Novogen, Inc., NSW, Australia) was added to the medium from 10 mg/ml stock to give various final concentrations as described in the results section. Following 24 h treatment, cell viability was evaluated using the CellTiter 96® AQueous One Solution Cell Proliferation Assay (Promega Corporation, Madison, Wis.) according to the manufacturer's instructions. Optical densities of the samples were measured at 490 nm using an automatic microplate reader (Model 550, Bio-Rad, Hurcules, Calif.). The values from the treated cells were compared with the values generated from the untreated control and reported as percent viability. Each experiment was done in triplicate.
# For experiments using the caspase inhibitor, Z-VAD-FMK (Sigma Aldrich, St. Louis, Mo.), the inhibitor was added to the cultures 30 mins prior to treatment to yield a final concentration of 20 μM. […]
# [4] = MIAPaCa-2, dose-escalating, 48 hr exposure
SMILES,"effect of zVAD-fmk pre-treatment on induced necrosis (MIAPaCa-2 cells; MIAPaCa-2, 10 μM zVAD-fmk 1 h before 10 μM Compound 10)","effect of zVAD-fmk pre-treatment on induced apoptosis (MIAPaCa-2 cells; MIAPaCa-2, 10 μM zVAD-fmk 1 h pre-treatment, 10 μM Compound 10 or 50 ng/mL TRAIL)",apoptosis (MIAPaCa-2 cells; [4]),necrosis (MIAPaCa-2 cells; [4]),cells having depolarized mitochondria (EOC cells [1]; 1 h),cells having depolarized mitochondria (EOC cells [1]; 4 h),"ERK, pJNK, pSTAT5a/b, and pCREB (xMAP phospho-protein panel) (8 phospho-proteins)",p-S6k (xMAP phospho-protein panel) (8 phospho-proteins),"pIκB, pSTAT3, and p38 (xMAP phospho-protein panel) (8 phospho-proteins)",p-mTOR level [2],"effect of autophagy inhibitor 3-MA on compound-induced cell death (EOC cells [3]; Compound 1 10 μg/ml, 3 MA (10 μM))","GI50 (EOC cells [3]; Homo sapiens, primary EOC cultures, paclitaxel-sensitive and paclitaxel-resistant (R182, R456), 24 h, read-out: GI50 (reduction in percentage of viable cells))","impact of pan-caspase inhibitor Z-VAD-FMK on compound-induced cell death (EOC cells [3]; Z-VAD-FMK 20 μM, increasing concentrations of Compound 1, 24 h)"
"COc1ccc(C2c3ccc(O)cc3OCC2c2ccc(O)cc2)cc1 (stereo not shown) [Compound 10, 3-(4-hydroxyphenyl)-4-(4-methoxyphenyl)chroman-7-ol]",inhibited,apparently enhanced,induced apoptosis in a dose-dependent fashion,Very little necrosis,–,–,–,–,–,–,–,–,–
"COc1ccc(C2c3ccc(O)c(C)c3OCC2c2ccc(O)cc2)cc1 (stereo not shown) [Compound 1, 3-(4-hydroxyphenyl)-4-(4-methoxyphenyl)-8-methylchroman-7-ol]",–,–,–,–,30%,50%,Up-regulation,down-regulates,minimal or no effect,down-regulated,not able to inhibit,5 to 10 µg/mL,no impact
